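In this assay, cells in 96-well plates receive the compound at five concentrations for 48 hours. Endpoints are linearly interpolated between the surrounding concentrations. GI50: concentration for 50% inhibition of growth. The concentration for full growth arrest is given as TGI.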
Tested on: MDA-MB-468 breast
Assay: NCI-60 cell line screen, 48 h

SMILES	GI50	TGI
Cn1cc(-c2nonc2-c2cn(C)c3ccc(Br)cc23)c2ccccc21	1560 nM	5170 nM
C/C(=N\NC(=S)Nc1ccccc1)c1ccccn1	< 13.2 nM	115 nM
CC1OC(OC2C(OC3CCC4(C)C(CCC5(C)C4CC=C4C6CC(C)(C)CCC6(CO)C(O)CC45C)C3(C)C)OC(C(=O)O)C(OC3OC(COC4OC(CO)C(O)C(O)C4O)C(O)C(O)C3O)C2O)C(O)C(O)C1O (configuration not stated)	1850 nM	6810 nM
CCCCCCCCCCCCCCCc1ccc(C(=O)C[n+]2ccccc2)cc1	1550 nM	2890 nM
N=C(N)c1ccc(-c2ccc(-c3ccccc3)o2)cc1	2120 nM	4100 nM
Cn1cccc1C1CC(=O)N(CCC[Se]C#N)C1=O (configuration not stated)	2680 nM	9290 nM
Cc1ccc2c(c1)/C(=N\N=C/c1cn(C(C)C)c3ccccc13)C(=O)N2	1840 nM	> 100000 nM
C=C1CCC2C3(C)COC(c4cccc(Cl)c4)OC3CCC2(C)C1/C=C/C1=CCOC1=O (configuration not stated)	1420 nM	7820 nM
COc1cc2nc(-c3ccc(Cl)cc3)cc(OCCCN3CCC(O)CC3)c2cc1OC	1560 nM	4040 nM
O=C(Nc1ccc(-n2cc(-c3ccncc3)c(-c3ccc(O)c(Cl)c3)n2)cc1)c1ccc(Cl)c(Cl)c1	4250 nM	> 32500 nM
COc1cccc(N2CCN(C3=C(Cl)C(=O)c4ncccc4C3=O)CC2)c1	1750 nM	3430 nM
Oc1ccc(-c2nc(-c3ccc(F)cc3)c(-c3ccncc3)[nH]2)cc1	6570 nM	44400 nM
CCN(CC)c1ccc(/C=C/C2=[N+](C)c3ccccc3C2(C)C)cc1	175 nM	5880 nM
CCN1C(=O)N(CC)C2C1NN=c1s/c(=C\c3ccc([N+](=O)[O-])cc3)c(=O)n12 (configuration not stated)	409 nM	7140 nM
CC1(C)CCC(CN2CCN(c3ccc(C(=O)NS(=O)(=O)c4ccc(NCC5CCOCC5)c([N+](=O)[O-])c4)c(Oc4cnc5[nH]ccc5c4)c3)CC2)=C(c2ccc(Cl)cc2)C1	2150 nM	7160 nM
C#CCSc1nnnn1-c1ccc(Br)c(C)c1	21200 nM	79700 nM

SMILES	GI50	TGI
Cn1cc(-c2csc(-c3cn(C)c4ncccc34)n2)c2ccccc21	445 nM	6600 nM
S=c1nc(/C=C/c2ccc(Cl)c(Cl)c2)[nH][nH]1	> 100000 nM	> 100000 nM
Cc1nc(N=C(N)N)nc2ccc3ccccc3c12	430 nM	2060 nM
COc1cc2c(c(Br)c1N)-c1cc(Br)c(N)cc1C2=O	17.2 nM	42.1 nM
Cn1cc(-c2ccc3c(c2)ncn3-c2ccc(CC(=O)Nc3cc(C(C)(C)C)on3)cc2)cn1	2830 nM	16500 nM
CCN(CC)CCN1C(=O)c2c(c3c4cc(Br)ccc4[nH]c3c3ccc4ccccc4c23)C1=O	1520 nM	3450 nM
COc1cccc(C2C3=C(COC3=O)N(CCO)c3cc4c(cc32)CCC4)c1 (configuration not stated)	21.6 nM	177 nM
C[C@@H](Oc1cc(-n2cnc3ccc(OCC4CCN(C)CC4)cc32)sc1C(N)=O)c1ccccc1C(F)(F)F	44.2 nM	192 nM
O=C(/C=C/c1cccnc1)/C=C/c1cccnc1	762 nM	2220 nM
O=S(=O)(Nc1ccc(-c2nc(-c3cccc(O)c3)c(-c3ccnc(Br)c3)[nH]2)cc1)c1ccccc1	1850 nM	5470 nM
C=C(CNCCc1ccc(O)cc1)[C@@H]1CC[C@]2(CO)CC[C@]3(C)[C@H](CC[C@@H]4[C@@]5(C)CCC(NCCO)C(C)(C)[C@@H]5CC[C@]43C)[C@@H]12 (some centres not stated)	1260 nM	2920 nM
O=C1/C(=C\c2ccccc2)CN(C(=O)c2ccccc2F)C/C1=C\c1ccccc1	1810 nM	3890 nM
c1ccc(CNc2nc(Nc3ccc(-c4nc5ccccc5[nH]4)cc3)c3cn[nH]c3n2)cc1	2050 nM	4810 nM
c1ccc(COc2ccc(Nc3ncnc4ccc(-c5ccco5)cc34)cc2)cc1	480 nM	5320 nM
Nc1nccc(C#Cc2cncnc2Nc2ccc(OCc3cccc(F)c3)c(Cl)c2)n1	1510 nM	4370 nM
